Data: the NIST ThermoML archive (doi:10.1016/j.jct.2014.12.027)
Numbers after ± are expanded uncertainties.

Assay: activity coefficient (dimensionless); of the first substance listed, at infinite dilution; xn = mol fraction of the nth substance listed
Settings: 101 kPa, Liquid, Chromatography, x1 = 0

| Compound | activity coefficient (318.15 K) | activity coefficient (328.15 K) | activity coefficient (338.15 K) | activity coefficient (348.15 K) | activity coefficient (358.15 K) | activity coefficient (368.15 K) |
| --- | --- | --- | --- | --- | --- | --- |
| CCCCCCCCC [nonane] + CCCC[n+]1ccc(C)cc1.N#CC(=C=[N-])C#N | 65.1 ± 4.5 | 59.1 ± 4 | 55.7 ± 3.8 | 51.2 ± 3.5 | 47.6 ± 3.3 | 45.8 ± 3.1 |
| CO [methanol] + CCCC[n+]1ccc(C)cc1.N#CC(=C=[N-])C#N | 0.663 ± 0.045 | 0.644 ± 0.044 | 0.625 ± 0.043 | 0.612 ± 0.043 | 0.593 ± 0.042 | 0.58 ± 0.041 |
| CCOC(C)=O [ethyl acetate] + CCCC[n+]1ccc(C)cc1.N#CC(=C=[N-])C#N | 1.3 ± 0.08 | 1.33 ± 0.09 | 1.36 ± 0.09 | 1.4 ± 0.09 | 1.42 ± 0.09 | 1.46 ± 0.1 |
| CCCO [propan-1-ol] + CCCC[n+]1ccc(C)cc1.N#CC(=C=[N-])C#N | 1.06 ± 0.07 | 1.01 ± 0.06 | 0.965 ± 0.061 | 0.936 ± 0.059 | 0.906 ± 0.057 | 0.872 ± 0.056 |
| CCCCO [butan-1-ol] + CCCC[n+]1ccc(C)cc1.N#CC(=C=[N-])C#N | 1.31 ± 0.09 | 1.23 ± 0.08 | 1.17 ± 0.07 | 1.13 ± 0.07 | 1.09 ± 0.07 | 1.05 ± 0.07 |
| CCC[N+](=O)[O-] [1-nitropropane] + CCCC[n+]1ccc(C)cc1.N#CC(=C=[N-])C#N | – | 0.748 ± 0.049 | 0.756 ± 0.05 | 0.769 ± 0.05 | 0.783 ± 0.051 | 0.792 ± 0.052 |
| Cc1cccc(C)c1 [1,3-dimethylbenzene] + CCCC[n+]1ccc(C)cc1.N#CC(=C=[N-])C#N | – | 1.71 ± 0.11 | 1.76 ± 0.12 | 1.82 ± 0.12 | 1.88 ± 0.13 | 1.94 ± 0.13 |
| Cc1ccccc1C [1,2-dimethylbenzene] + CCCC[n+]1ccc(C)cc1.N#CC(=C=[N-])C#N | 1.4 ± 0.09 | 1.45 ± 0.1 | 1.49 ± 0.1 | 1.56 ± 0.1 | 1.61 ± 0.11 | 1.66 ± 0.11 |
| CCO [ethanol] + CCCC[n+]1ccc(C)cc1.N#CC(=C=[N-])C#N | 0.917 ± 0.058 | 0.876 ± 0.056 | 0.838 ± 0.054 | 0.812 ± 0.053 | 0.784 ± 0.051 | 0.755 ± 0.05 |
| CCCCCC [hexane] + CCCC[n+]1ccc(C)cc1.N#CC(=C=[N-])C#N | 24.3 ± 1.7 | 23 ± 1.6 | 22.1 ± 1.5 | 20.8 ± 1.4 | 20 ± 1.4 | 19.1 ± 1.3 |
| O [water] + CCCC[n+]1ccc(C)cc1.N#CC(=C=[N-])C#N | 0.971 ± 0.061 | 0.926 ± 0.059 | 0.887 ± 0.056 | 0.859 ± 0.055 | 0.826 ± 0.053 | 0.796 ± 0.052 |
| CCCCCCCC [octane] + CCCC[n+]1ccc(C)cc1.N#CC(=C=[N-])C#N | 46.4 ± 3.2 | 43.2 ± 3 | 41.1 ± 2.8 | 38.4 ± 2.6 | 36.3 ± 2.5 | 34.6 ± 2.4 |
| C1CCCCCC1 [cycloheptane] + CCCC[n+]1ccc(C)cc1.N#CC(=C=[N-])C#N | 12.8 ± 0.9 | 12.1 ± 0.8 | 11.7 ± 0.8 | 11.1 ± 0.8 | 10.6 ± 0.7 | 10.3 ± 0.7 |
| c1ccsc1 [thiophene] + CCCC[n+]1ccc(C)cc1.N#CC(=C=[N-])C#N | 0.636 ± 0.044 | 0.658 ± 0.045 | 0.678 ± 0.046 | 0.704 ± 0.047 | 0.733 ± 0.049 | 0.748 ± 0.049 |
| C=CCCCC [hex-1-ene] + CCCC[n+]1ccc(C)cc1.N#CC(=C=[N-])C#N | 11.1 ± 0.8 | 10.5 ± 0.7 | 10.2 ± 0.7 | 9.72 ± 0.66 | 9.17 ± 0.63 | 8.75 ± 0.6 |
| Cc1ccccc1 [toluene] + CCCC[n+]1ccc(C)cc1.N#CC(=C=[N-])C#N | 1.19 ± 0.08 | 1.23 ± 0.08 | 1.27 ± 0.08 | 1.32 ± 0.09 | 1.36 ± 0.09 | 1.4 ± 0.09 |
| CC(C)=O [acetone] + CCCC[n+]1ccc(C)cc1.N#CC(=C=[N-])C#N | 0.598 ± 0.042 | 0.617 ± 0.043 | 0.634 ± 0.044 | 0.656 ± 0.045 | 0.672 ± 0.046 | 0.686 ± 0.046 |
| Cc1ccc(C)cc1 [1,4-dimethylbenzene] + CCCC[n+]1ccc(C)cc1.N#CC(=C=[N-])C#N | – | 1.66 ± 0.11 | 1.71 ± 0.11 | 1.79 ± 0.12 | 1.84 ± 0.12 | 1.9 ± 0.13 |

| Compound | activity coefficient (318.15 K) | activity coefficient (328.15 K) | activity coefficient (338.15 K) | activity coefficient (348.15 K) | activity coefficient (358.15 K) | activity coefficient (368.15 K) |
| --- | --- | --- | --- | --- | --- | --- |
| C1CCOC1 [tetrahydrofuran] + CCCC[n+]1ccc(C)cc1.N#CC(=C=[N-])C#N | 0.779 ± 0.051 | 0.807 ± 0.052 | 0.827 ± 0.053 | 0.856 ± 0.055 | 0.872 ± 0.056 | 0.907 ± 0.058 |
| CCC(=O)CC [pentan-3-one] + CCCC[n+]1ccc(C)cc1.N#CC(=C=[N-])C#N | 0.942 ± 0.059 | 0.976 ± 0.061 | 1.01 ± 0.06 | 1.05 ± 0.07 | 1.07 ± 0.07 | 1.11 ± 0.07 |
| CC(C)CO [2-methyl-1-propanol] + CCCC[n+]1ccc(C)cc1.N#CC(=C=[N-])C#N | 1.33 ± 0.086 | 1.23 ± 0.079 | 1.16 ± 0.074 | 1.11 ± 0.07 | 1.06 ± 0.067 | 1.02 ± 0.064 |
| CC(C)O [propan-2-ol] + CCCC[n+]1ccc(C)cc1.N#CC(=C=[N-])C#N | 1.15 ± 0.07 | 1.09 ± 0.07 | 1.04 ± 0.07 | 1 ± 0.06 | 0.961 ± 0.06 | 0.928 ± 0.059 |
| C#CCCCC [1-hexyne] + CCCC[n+]1ccc(C)cc1.N#CC(=C=[N-])C#N | 2.98 ± 0.2 | 3.04 ± 0.21 | 3.1 ± 0.21 | 3.17 ± 0.22 | 3.25 ± 0.22 | 3.3 ± 0.22 |
| C=CCCCCCC [oct-1-ene] + CCCC[n+]1ccc(C)cc1.N#CC(=C=[N-])C#N | 21.3 ± 1.5 | 20.3 ± 1.4 | 19.7 ± 1.3 | 18.9 ± 1.3 | 18.3 ± 1.3 | 17.8 ± 1.2 |
| CCCC(C)=O [pentan-2-one] + CCCC[n+]1ccc(C)cc1.N#CC(=C=[N-])C#N | 0.955 ± 0.06 | 0.986 ± 0.062 | 1.01 ± 0.06 | 1.05 ± 0.07 | 1.07 ± 0.07 | 1.1 ± 0.07 |
| c1ccncc1 [pyridine] + CCCC[n+]1ccc(C)cc1.N#CC(=C=[N-])C#N | – | 0.498 ± 0.038 | 0.51 ± 0.038 | 0.528 ± 0.039 | 0.542 ± 0.04 | 0.557 ± 0.04 |
| C#CCCCCC [1-heptyne] + CCCC[n+]1ccc(C)cc1.N#CC(=C=[N-])C#N | 4.09 ± 0.28 | 4.15 ± 0.28 | 4.22 ± 0.29 | 4.29 ± 0.29 | 4.34 ± 0.3 | 4.43 ± 0.3 |
| CC1CCCCC1 [methylcyclohexane] + CCCC[n+]1ccc(C)cc1.N#CC(=C=[N-])C#N | 15.8 ± 1.1 | 14.8 ± 1 | 13.9 ± 1 | 13.4 ± 0.9 | 12.7 ± 0.9 | 12.1 ± 0.8 |
| c1ccccc1 [benzene] + CCCC[n+]1ccc(C)cc1.N#CC(=C=[N-])C#N | 0.889 ± 0.057 | 0.916 ± 0.058 | 0.937 ± 0.059 | 0.976 ± 0.061 | 1 ± 0.06 | 1.02 ± 0.06 |
| CCc1ccccc1 [ethylbenzene] + CCCC[n+]1ccc(C)cc1.N#CC(=C=[N-])C#N | 1.78 ± 0.12 | 1.83 ± 0.12 | 1.87 ± 0.13 | 1.93 ± 0.13 | 1.98 ± 0.13 | 2.01 ± 0.14 |
| C1COCCO1 [1,4-dioxane] + CCCC[n+]1ccc(C)cc1.N#CC(=C=[N-])C#N | 0.573 ± 0.041 | 0.601 ± 0.042 | 0.624 ± 0.043 | 0.656 ± 0.045 | 0.68 ± 0.046 | 0.708 ± 0.047 |
| CC#N [acetonitrile] + CCCC[n+]1ccc(C)cc1.N#CC(=C=[N-])C#N | 0.584 ± 0.041 | 0.59 ± 0.04 | 0.593 ± 0.042 | 0.599 ± 0.042 | 0.604 ± 0.042 | 0.613 ± 0.043 |
| CCCCCCCCCC [decane] + CCCC[n+]1ccc(C)cc1.N#CC(=C=[N-])C#N | 90.4 ± 6.2 | 83 ± 5.7 | 76.5 ± 5.2 | 72.6 ± 5 | 67.7 ± 4.6 | 62.8 ± 4.3 |
| C1CCCCC1 [cyclohexane] + CCCC[n+]1ccc(C)cc1.N#CC(=C=[N-])C#N | 11.1 ± 0.8 | 10.5 ± 0.7 | 10 ± 0.7 | 9.57 ± 0.65 | 9.07 ± 0.62 | 8.65 ± 0.59 |
| CCCCCCC [heptane] + CCCC[n+]1ccc(C)cc1.N#CC(=C=[N-])C#N | 33.7 ± 2.3 | 31.3 ± 2.1 | 29.7 ± 2 | 27.6 ± 1.9 | 25.8 ± 1.8 | 24.7 ± 1.7 |
